How the values were obtained:
wild oat = assay: Test B pre/postemergence wild oat; type: in vivo, Avena fatua; settings: Preemergence; for Plant response rating, Wild oats: Rate 125 g/ha
Procedure, shortened: (§1)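 Response is a visual 0-to-10 score relative to untreated plants, where 0 means no effect and 10 means complete control, taken twelve to sixteen days after application. Treatments went onto soil at planting and onto foliage of 1- to 4-leaf plants, using a surfactant-containing non-phytotoxic solvent.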

surinam grass = assay: Test B pre/postemergence surinam grass; type: in vivo, Brachiaria decumbens; settings: Preemergence; for Plant response rating, B. signalgrass: Rate 125 g/ha
Procedure, shortened: as §1

crabgrass = assay: Test B pre/postemergence crabgrass; type: in vivo, Digitaria sanguinalis; settings: Preemergence; for Plant response rating, Crabgrass: Rate 125 g/ha
Procedure, shortened: as §1

giant foxtail = assay: Test B pre/postemergence giant foxtail; type: in vivo, Setaria faberii; settings: Preemergence; for Plant response rating, Giant foxtail: Rate 125 g/ha
Procedure, shortened: as §1

wheat = assay: Test B pre/postemergence wheat; type: in vivo, Triticum aestivum; settings: Preemergence; for Plant response rating, Wheat: Rate 125 g/ha
Procedure, shortened: as §1

soybean = assay: Test B pre/postemergence soybean; type: in vivo, Glycine max; settings: Preemergence; for Plant response rating, Soybean: Rate 125 g/ha
Procedure, shortened: as §1

rape = assay: Test B pre/postemergence rape; type: in vivo, Brassica napus; settings: Preemergence; for Plant response rating, Rape: Rate 125 g/ha
Procedure, shortened: as §1

corn = assay: Test B pre/postemergence corn; type: in vivo, Zea mays; settings: Preemergence; for Plant response rating, Corn: Rate 125 g/ha
Procedure, shortened: as §1

cocklebur = assay: Test B pre/postemergence cocklebur; type: in vivo, Xanthium strumarium; settings: Preemergence; for Plant response rating, Cocklebur: Rate 125 g/ha
Procedure, shortened: as §1

morningglory = assay: Test B pre/postemergence morningglory; type: in vivo, Ipomoea hederacea; settings: Preemergence; for Plant response rating, Morningglory: Rate 125 g/ha
Procedure, shortened: as §1

pigweed = assay: Test B pre/postemergence pigweed; type: in vivo, Amaranthus retroflexus; settings: Preemergence; for Plant response rating, Redroot pigweed: Rate 125 g/ha
Procedure, shortened: as §1

sugar beet = assay: Test B pre/postemergence sugar beet; type: in vivo, Beta vulgaris; settings: Preemergence; for Plant response rating, Sugarbeets: Rate 125 g/ha
Procedure, shortened: as §1

bedstraw = assay: Test B pre/postemergence bedstraw; type: in vivo, Galium aparine; settings: Preemergence; for Plant response rating, Bedstraw: Rate 125 g/ha
Procedure, shortened: as §1

purple nutsedge = assay: Test B pre/postemergence purple nutsedge; type: in vivo, Cyperus rotundus; settings: Preemergence; for Plant response rating, Nutsedge: Rate 125 g/ha
Procedure, shortened: as §1

blackgrass = assay: Test B pre/postemergence blackgrass; type: in vivo, Alopecurus myosuroides; settings: Preemergence; for Plant response rating, Blackgrass: Rate 125 g/ha
Procedure, shortened: as §1

velvetleaf = assay: Test B pre/postemergence velvetleaf; type: in vivo, Abutilon theophrasti; settings: Preemergence; for Plant response rating, Velvetleaf: Rate 125 g/ha
Procedure, shortened: as §1

[1] = Rate 62 g/ha, scale of 0 to 10 where 0 is no effect and 10 is complete control
[2] = scale of 0 to 10 where 0 is no effect and 10 is complete control
[3] = Rate 250 g/ha, scale 0 (no effect) to 10 (complete control)
[4] = Rate 500 g/ha, scale 0 to 10 (0 no effect, 10 complete control)

Question: Which results are given for CC(C)N(C(=O)n1oc(=O)n(C(C)C(=S)N(C)C)c1=O)c1ccc(F)cc1 (centres unmarked) [Compound 728]?
Answer: Wild oats plant response rating (wild oat; [1]): 0; Plant response rating, Wild oats (wild oat; [2]): 4; Wild oats plant response rating (wild oat; [3]): 10; Wild oats plant response rating (wild oat; [4]): 10; B. signalgrass plant response rating (surinam grass; [1]): 5; Plant response rating, B. signalgrass (surinam grass; [2]): 8; B. signalgrass plant response rating (surinam grass; [3]): 8; B. signalgrass plant response rating (surinam grass; [4]): 9; Crabgrass plant response rating (crabgrass; [1]): 6; Plant response rating, Crabgrass (crabgrass; [2]): 6; Crabgrass plant response rating (crabgrass; [4]): 7; Giant foxtail plant response rating (giant foxtail; [1]): 4; Plant response rating, Giant foxtail (giant foxtail; [2]): 7; Giant foxtail plant response rating (giant foxtail; [3]): 8; Giant foxtail plant response rating (giant foxtail; [4]): 8; Wheat plant response rating (wheat; [1]): 0; Plant response rating, Wheat (wheat; [2]): 0; Wheat plant response rating (wheat; [3]): 5; Wheat plant response rating (wheat; [4]): 7; Soybean plant response rating (soybean; [1]): 0; Plant response rating, Soybean (soybean; [2]): 0; Soybean plant response rating (soybean; [3]): 0; Soybean plant response rating (soybean; [4]): 0; Rape plant response rating (rape; [1]): 0; Plant response rating, Rape (rape; [2]): 3; Rape plant response rating (rape; [3]): 6; Rape plant response rating (rape; [4]): 8; Corn plant response rating (corn; [1]): 0; Plant response rating, Corn (corn; [2]): 0; Corn plant response rating (corn; [3]): 0; Corn plant response rating (corn; [4]): 0; Cocklebur plant response rating (cocklebur; [1]): 0; Plant response rating, Cocklebur (cocklebur; [2]): 0; Cocklebur plant response rating (cocklebur; [3]): 0; Cocklebur plant response rating (cocklebur; [4]): 0; Morningglory plant response rating (morningglory; [1]): 0; Plant response rating, Morningglory (morningglory; [2]): 0; Morningglory plant response rating (morningglory; [3]): 2; Morningglory plant response rating (morningglory; [4]): 2; Redroot pigweed plant response rating (pigweed; [1]): 0; Plant response rating, Redroot pigweed (pigweed; [2]): 7; Redroot pigweed plant response rating (pigweed; [3]): 8; Redroot pigweed plant response rating (pigweed; [4]): 9; Sugarbeets plant response rating (sugar beet; [1]): 0; Plant response rating, Sugarbeets (sugar beet; [2]): 0; Sugarbeets plant response rating (sugar beet; [3]): 4; Sugarbeets plant response rating (sugar beet; [4]): 4; Bedstraw plant response rating (bedstraw; [1]): 0; Plant response rating, Bedstraw (bedstraw; [2]): 0; Bedstraw plant response rating (bedstraw; [3]): 0; Bedstraw plant response rating (bedstraw; [4]): 2; Nutsedge plant response rating (purple nutsedge; [1]): 0; Plant response rating, Nutsedge (purple nutsedge; [2]): 0; Blackgrass plant response rating (blackgrass; [1]): 0; Plant response rating, Blackgrass (blackgrass; [2]): 9; Blackgrass plant response rating (blackgrass; [3]): 9; Blackgrass plant response rating (blackgrass; [4]): 10; Velvetleaf plant response rating (velvetleaf; [1]): 0; Plant response rating, Velvetleaf (velvetleaf; [2]): 0; Velvetleaf plant response rating (velvetleaf; [3]): 0; Velvetleaf plant response rating (velvetleaf; [4]): 0

Question: COC(CCl)n1c(=O)on(C(=O)N(c2ccc(F)cc2F)C(C)C)c1=O (centres unmarked) [Compound 737] was tested. Which “Plant response rating, Wild oats” value (wild oat; [2]) did it give?
Answer: 6

Question: What about the “Wild oats plant response rating” value (wild oat; [3]) of the same compound?
Answer: 8

Question: And the “Wild oats plant response rating” value (wild oat; Rate 62 g/ha, scale 0 to 10)?
Answer: 5

Question: What about the “Wild oats plant response rating” value (wild oat; [4]) of the same compound?
Answer: 9

Question: What about the “B. signalgrass plant response rating” value (surinam grass; [1]) of the same compound?
Answer: 4

Question: And the “Plant response rating, B. signalgrass” value (surinam grass; [2])?
Answer: 4

Question: And the “B. signalgrass plant response rating” value (surinam grass; [3])?
Answer: 8

Question: What about the “B. signalgrass plant response rating” value (surinam grass; [4]) of the same compound?
Answer: 9

Question: And the “Plant response rating, Crabgrass” value (crabgrass; [2])?
Answer: 9

Question: And the “Crabgrass plant response rating” value (crabgrass; [3])?
Answer: 10

Question: And the “Crabgrass plant response rating” value (crabgrass; Rate 62 g/ha, scale 0 to 10)?
Answer: 8

Question: And the “Crabgrass plant response rating” value (crabgrass; [4])?
Answer: 10

Question: And the “Plant response rating, Giant foxtail” value (giant foxtail; [2])?
Answer: 10

Question: What about the “Giant foxtail plant response rating” value (giant foxtail; [3]) of the same compound?
Answer: 10

Question: What about the “Giant foxtail plant response rating” value (giant foxtail; Rate 62 g/ha, scale 0 to 10) of the same compound?
Answer: 9

Question: What about the “Giant foxtail plant response rating” value (giant foxtail; [4]) of the same compound?
Answer: 10

Question: And the “Plant response rating, Wheat” value (wheat; [2])?
Answer: 0

Question: And the “Wheat plant response rating” value (wheat; [3])?
Answer: 2

Question: And the “Wheat plant response rating” value (wheat; Rate 62 g/ha, scale 0 to 10)?
Answer: 0

Question: What about the “Wheat plant response rating” value (wheat; [4]) of the same compound?
Answer: 2

Question: And the “Plant response rating, Soybean” value (soybean; [2])?
Answer: 0

Question: What about the “Soybean plant response rating” value (soybean; [3]) of the same compound?
Answer: 0

Question: What about the “Soybean plant response rating” value (soybean; Rate 62 g/ha, scale 0 to 10) of the same compound?
Answer: 0

Question: What about the “Soybean plant response rating” value (soybean; [4]) of the same compound?
Answer: 0

Question: And the “Plant response rating, Rape” value (rape; [2])?
Answer: 0

Question: What about the “Rape plant response rating” value (rape; [3]) of the same compound?
Answer: 5

Question: What about the “Rape plant response rating” value (rape; Rate 62 g/ha, scale 0 to 10) of the same compound?
Answer: 0

Question: And the “Rape plant response rating” value (rape; [4])?
Answer: 6

Question: And the “Plant response rating, Corn” value (corn; [2])?
Answer: 2

Question: And the “Corn plant response rating” value (corn; [3])?
Answer: 3

Question: And the “Corn plant response rating” value (corn; Rate 62 g/ha, scale 0 to 10)?
Answer: 0

Question: And the “Corn plant response rating” value (corn; [4])?
Answer: 6

Question: And the “Plant response rating, Cocklebur” value (cocklebur; [2])?
Answer: 0

Question: What about the “Cocklebur plant response rating” value (cocklebur; [3]) of the same compound?
Answer: 0

Question: What about the “Cocklebur plant response rating” value (cocklebur; Rate 62 g/ha, scale 0 to 10) of the same compound?
Answer: 0

Question: What about the “Cocklebur plant response rating” value (cocklebur; [4]) of the same compound?
Answer: 0

Question: And the “Plant response rating, Morningglory” value (morningglory; [2])?
Answer: 2

Question: And the “Morningglory plant response rating” value (morningglory; [3])?
Answer: 2

Question: And the “Morningglory plant response rating” value (morningglory; Rate 62 g/ha, scale 0 to 10)?
Answer: 1

Question: What about the “Morningglory plant response rating” value (morningglory; [4]) of the same compound?
Answer: 3

Question: What about the “Plant response rating, Redroot pigweed” value (pigweed; [2]) of the same compound?
Answer: 3

Question: What about the “Redroot pigweed plant response rating” value (pigweed; [3]) of the same compound?
Answer: 6

Question: What about the “Redroot pigweed plant response rating” value (pigweed; Rate 62 g/ha, scale 0 to 10) of the same compound?
Answer: 2

Question: What about the “Redroot pigweed plant response rating” value (pigweed; [4]) of the same compound?
Answer: 8

Question: And the “Plant response rating, Sugarbeets” value (sugar beet; [2])?
Answer: 5

Question: And the “Sugarbeets plant response rating” value (sugar beet; [3])?
Answer: 6

Question: What about the “Sugarbeets plant response rating” value (sugar beet; Rate 62 g/ha, scale 0 to 10) of the same compound?
Answer: 1

Question: What about the “Sugarbeets plant response rating” value (sugar beet; [4]) of the same compound?
Answer: 6

Question: And the “Plant response rating, Bedstraw” value (bedstraw; [2])?
Answer: 0

Question: What about the “Bedstraw plant response rating” value (bedstraw; [3]) of the same compound?
Answer: 0

Question: And the “Bedstraw plant response rating” value (bedstraw; Rate 62 g/ha, scale 0 to 10)?
Answer: 0

Question: And the “Bedstraw plant response rating” value (bedstraw; [4])?
Answer: 0

Question: What about the “Plant response rating, Nutsedge” value (purple nutsedge; [2]) of the same compound?
Answer: 0

Question: What about the “Nutsedge plant response rating” value (purple nutsedge; [3]) of the same compound?
Answer: 0

Question: What about the “Nutsedge plant response rating” value (purple nutsedge; Rate 62 g/ha, scale 0 to 10) of the same compound?
Answer: 0

Question: What about the “Nutsedge plant response rating” value (purple nutsedge; [4]) of the same compound?
Answer: 0

Question: And the “Plant response rating, Blackgrass” value (blackgrass; [2])?
Answer: 9

Question: What about the “Blackgrass plant response rating” value (blackgrass; [3]) of the same compound?
Answer: 9

Question: And the “Blackgrass plant response rating” value (blackgrass; Rate 62 g/ha, scale 0 to 10)?
Answer: 6

Question: What about the “Blackgrass plant response rating” value (blackgrass; [4]) of the same compound?
Answer: 10

Question: And the “Plant response rating, Velvetleaf” value (velvetleaf; [2])?
Answer: 0

Question: What about the “Velvetleaf plant response rating” value (velvetleaf; [3]) of the same compound?
Answer: 4

Question: And the “Velvetleaf plant response rating” value (velvetleaf; Rate 62 g/ha, scale 0 to 10)?
Answer: 0

Question: What about the “Velvetleaf plant response rating” value (velvetleaf; [4]) of the same compound?
Answer: 5

Source: patent publication US6737383B1, “Herbicidal oxadiazolidines” (priority 1999, dated 2004)
